The results in this text go back to US20240150270A1, “METHOD FOR SELECTIVE RECOVERY OF LIPOPHILIC COMPOUNDS” (priority 2021, published 2024).

Data set [1] can be described thus: Capture and release of target molecule by cross-linked polymer (HDI-linked cyclodextrin), slurry protocol. In kind it is physicochemical. Particulars: Example 9; 2 mg/mL in 1:1 ethanol:water, 10:1.
Protocol: A mass of CBD was dissolved in ethanol to form a stock solution. A reference sample of the stock solution was diluted with ethanol to obtain a target CBD or other target molecule concentration for a reference measurement. A reaction sample was taken from the remaining stock solution. A cross-linked polysaccharide was combined with the reaction sample in a ratio relative to the CBD or other target molecule concentration present in the reaction sample (by mass) as specified in Examples. The cross-linked polymer is HDI-linked cyclodextrin prepared with a ratio of 8:1 HDI to cyclodextrin.
Water is combined with the reaction sample until the reaction sample reaches a target CBD or other target molecule concentration, and a target ethanol to water ratio. The reaction mixture including the water is filtered at a cutoff size of between 75 μm to 4,000 μm aperture size, or exposed to a magnetic field with a neodymium magnet through the wall of a flask, to retrieve the cross-linked polymer bound with CBD or other target molecule concentration. Once retrieved, the cross-linked polymer is flushed with a dissociation fluid for dissolving the target molecule.
Ten milligrams of CBD were dissolved in a 10 mL mixture of 1:1 ethanol to water to produce a reaction mixture with a CBD concentration of 1 mg/mL. A 1 mL aliquot was then taken from the reaction mixture as a reference sample (t=0). […]
The nature of data set [2]: Dissolution of CBD in ethanol:water mixtures. In kind it is physicochemical. On the procedure: The protocol of Example 9 was followed with the 60 mg initially dissolved in ethanol only. […] The remaining five portions were diluted to an ethanol to water ratio of 7:3, 6:4, 5:5, 4:6 or 3:7. The portions were then filtered to retrieve the cross-linked polymer.
At 50:50 EtOH:H2O, CBD dissolves provided that EtOH is added first then H2O. At 45:56 EtOH:H2O, the 2 mg/mL CBD solution is cloudy. […] Slowly adding H2O to the CBD, EtOH, polymer mixture results in very high capture of 98% at a 3:7 EtOH:H2O.
The portions were filtered by pipette filtration to retrieve the cross-linked polymer. The cross-linked polymer was then flushed with DMSO. […] Ten percent of the CBD is not in solution when CBD in 3:7 EtOH:H2O is used. The calculated cyclodextrin capacity within the polymer is 8:1 polymer:CBD.

Take `C=C(C)[C@@H]1CCC(C)=C[C@H]1c1c(O)cc(CCCCC)cc1O` [CBD, cannabidiol]: the “time to capture plateau” value in data set [1] is “about 5 minutes”. Besides, the “dissolution of CBD” value in data set [2] (6 mg/mL in 1:1 EtOH:H2O, sonication and heating) is “did not dissolve”; in data set [2] (40:60 EtOH:H2O, 2 mg/mL), “not fully dissolved”; in data set [2] (45:56 EtOH:H2O, 2 mg/mL), “cloudy”; in data set [2] (50:50 EtOH:H2O, 2 mg/mL, EtOH added first then H2O), “dissolves”. Moreover, in data set [2] (CBD in 3:7 EtOH:H2O, Example 17), the “CBD not in solution” value is recorded as “Ten”.
